Measurements from patent publication US20150105252A1, “SUBSTITUTED PYRAZOLES AS HERBICIDES” (E I DU PONT DE NEMOURS AND COMPANY, priority 2013, published 2015).

Tests used:
bromegrass, downy = experiment: Test C postemergence; format: in vivo, Bromus tectorum; conditions: for Bromegrass, Downy plant response rating: scale 0 to 100
Description: (§1) Seeds of plant species selected from blackgrass (Alopecurus myosuroides), ryegrass, Italian (Italian ryegrass, Lolium multiflorum), wheat (winter wheat, Triticum aestivum), galium (catchweed bedstraw, Galium aparine), corn (Zea mays), crabgrass, large (large crabgrass, Digitaria sanguinalis), foxtail, giant (giant foxtail, Setaria faberii), johnsongrass (Sorghum halepense), lambsquarters (Chenopodium album), morningglory (Ipomoea coccinea), nutsedge, yellow (yellow nutsedge, Cyperus esculentus), pigweed (redroot pigweed, Amaranthus retroflexus), ragweed (common ragweed, Ambrosia elation), soybean (Glycine max), barnyardgrass (Echinochloa crus-galli), oilseed rape (Brassica napus), waterhemp (common waterhemp, Amaranthus rudis), oat, wild (wild oat, Avena fatua), kochia (Kochia scoparia), Surinam grass (Brachiaria decumbens), foxtail, green (green foxtail, Setaria viridis), goosegrass (Eleusine indica), bromegrass, downy (downy bromegrass, Bromus tectorum), nightshade (eastern black nightshade, Solanum ptycanthum), cocklebur (common cocklebur, Xanthium strumarium), cupgrass, woolly (woolly cupgrass, Eriochloa villosa), bermudagrass (Cynodon dactylon), sunflower, (common oilseed sunflower, Helianthus annuus), Russian thistle (Salsola kali), and velvetleaf (Abutilon theophrasti) were planted into a blend of loam soil and sand and treated preemergence with test chemicals formulated in a non-phytotoxic solvent mixture which included a surfactant.
(§2) At the same time, plants selected from these crop and weed species and also chickweed (common chickweed, Stellaria media), canarygrass (littleseed canarygrass, Phalaris minor), and deadnettle (henbit deadnettle, Lamium amplexicaule), were planted in pots containing Redi-Earth® planting medium (Scotts Company, 14111 Scottslawn Road, Marysville, Ohio 43041) comprising spaghnum peat moss, vermiculite, wetting agent and starter nutrients and treated with postemergence applications of test chemicals formulated in the same manner. Plants ranged in height from 2 to 18 cm (1- to 4-leaf stage) for postemergence treatments. Treated plants and controls were maintained in a greenhouse for 13 to 15 days, after which time all species were compared to controls and visually evaluated. Plant response ratings, summarized in Table C, are based on a scale of 0 to 100 where 0 is no effect and 100 is complete control. A dash (-) response means no test result.

foxtail, green = experiment: Test C preemergence; format: in vivo, Setaria viridis; conditions: for Plant response rating (scale of 0 to 100), Foxtail, Green: Preemergence, 250 g ai/ha; for Foxtail, Green plant response rating / Plant response rating, Foxtail, Green: preemergence; for Plant response rating, Foxtail, Green: 62 g ai/ha, scale 0 to 100, 0 = no effect, 100 = complete control
Description: as §1, §2

Surinam grass = experiment: Test C preemergence; format: in vivo, Brachiaria decumbens; conditions: for Plant response rating (scale of 0 to 100), Surinam Grass: Preemergence, 250 g ai/ha; for Surinam Grass plant response rating / Plant response rating, Surinam Grass: preemergence; for Plant response rating, Surinam Grass: 62 g ai/ha, scale 0 to 100, 0 = no effect, 100 = complete control
Description: as §1, §2

oat, wild = experiment: Test C preemergence; format: in vivo, Avena fatua; conditions: for Plant response rating (scale of 0 to 100), Oat, Wild: Preemergence, 250 g ai/ha; for Oat, Wild plant response rating / Plant response rating, Oat, Wild: preemergence; for Plant response rating, Oat, Wild: 62 g ai/ha, scale 0 to 100, 0 = no effect, 100 = complete control
Description: as §1, §2

goosegrass = experiment: Test F preemergence; format: in vivo, Eleusine indica
Description: (§3) Seeds of plant species selected from corn (Zea mays), soybean (Glycine max), velvetleaf (Abutilon theophrasti), lambsquarters (Chenopodium album), wild poinsettia (Euphorbia heterophylla), pigweed, palmer (palmer pigweed, Amaranthus palmeri), common waterhemp (Amaranthus rudis), surinam grass (Brachiaria decumbens), large crabgrass (Digitaria sanguinalis), crabgrass, Brazil (Brazilian crabgrass, Digitaria horizontalis), fall panicum (Panicum dichotomiflorum), giant foxtail (Setaria faberii), green foxtail (Setaria viridis), goosegrass (Eleusine indica), johnsongrass (Sorghum halepense), common ragweed (Ambrosia elation), barnyardgrass (Echinochloa crus-galli), southern sandbur (Cenchrus echinatus), arrowleaf sida (Sida rhombifolia), Italian ryegrass (Lolium multiflorum), dayflower, VA (Virginia (VA) dayflower, Commelina virginica), field bindweed (Convolvulus arvensis), cocklebur (common cocklebur, Xanthium strumarium), morningglory (Ipomoea coccinea), nightshade (eastern black nightshade, Solanum ptycanthum), kochia (Kochia scoparia), yellow nutsedge (Cyperus esculentus), and hairy beggarticks (Bidens pilosa), were planted into a silt loam soil and treated preemergence with test chemicals formulated in a non-phytotoxic solvent mixture which included a surfactant.
(§4) At the same time, plants from these crop and weed species and also horseweed (Canada horseweed, Conyza canadensis), smartweed (ladysthumb smartweed, Polygonum persicaria), waterhemp_RES1, (ALS & Triazine resistant common waterhemp, Amaranthus rudis), and waterhemp_RES2, (ALS & HPPD resistant common waterhemp, Amaranthus rudis) were treated with postemergence applications of test chemicals formulated in the same manner. Plants ranged in height from 2 to 18 cm for postemergence treatments (1- to 4-leaf stage). Treated plants and controls were maintained in a greenhouse for 14 to 21 days, after which time all species were compared to controls and visually evaluated. Plant response ratings, summarized in Table F, are based on a scale of 0 to 100 where 0 is no effect and 100 is complete control. A dash (-) response means no test result.

Italian ryegrass = experiment: Test F preemergence; format: in vivo, Lolium multiflorum
Description: as §3, §4

barnyardgrass = experiment: Test F preemergence; format: in vivo, Echinochloa crus-galli
Description: as §3, §4

[1] = postemergence, 250 g ai/ha, scale 0 to 100 (0 no effect, 100 complete control)
[2] = postemergence, 62 g ai/ha, scale 0 to 100, 0 no effect, 100 complete control
[3] = postemergence, 125 g ai/ha, scale 0 to 100, 0 no effect, 100 complete control
[4] = 31 g ai/ha, scale 0 to 100 (0 no effect, 100 complete control), 13 to 15 days
[5] = 125 g ai/ha, scale 0 to 100, 0 is no effect, 100 is complete control
[6] = Preemergence, 31 g ai/ha, scale 0 to 100
[7] = Preemergence, 62 g ai/ha, scale 0 to 100
[8] = Preemergence, 125 g ai/ha, scale 0 to 100
[9] = preemergence, 8 g ai/ha, scale 0 to 100, 100 is complete control
[10] = preemergence, 16 g ai/ha, scale 0 to 100, 100 is complete control

| SMILES | Bromegrass, Downy plant response rating (bromegrass, downy; Postemergence, 31 g ai/ha) | Plant response rating, Bromegrass, Downy (bromegrass, downy; [1]) | Plant response rating, Bromegrass, Downy (bromegrass, downy; [2]) | Plant response rating, Bromegrass, Downy (bromegrass, downy; [3]) | Plant response rating (scale of 0 to 100), Foxtail, Green (foxtail, green) | Foxtail, Green plant response rating (foxtail, green; [4]) | Plant response rating, Foxtail, Green (foxtail, green; 13 to 15 days) | Foxtail, Green plant response rating (foxtail, green; [5]) | Plant response rating (scale of 0 to 100), Surinam Grass (Surinam grass) | Surinam Grass plant response rating (Surinam grass; [4]) | Plant response rating, Surinam Grass (Surinam grass; 13 to 15 days) | Surinam Grass plant response rating (Surinam grass; [5]) | Plant response rating (scale of 0 to 100), Oat, Wild (oat, wild) | Oat, Wild plant response rating (oat, wild; [4]) | Plant response rating, Oat, Wild (oat, wild; 13 to 15 days) | Oat, Wild plant response rating (oat, wild; [5]) | Bromegrass, Downy plant response rating (bromegrass, downy; postemergence, 62 g ai/ha) | further results |
| --- | --- | --- | --- | --- | --- | --- | --- | --- | --- | --- | --- | --- | --- | --- | --- | --- | --- | --- |
| CCc1cc(C(=O)NCC(F)(F)F)nn1Cc1cccc(OC(F)(F)F)c1 [Compound 20] | 0 | 10 | 0 | 5 |  |  |  |  |  |  |  |  |  |  |  |  |  |  |
| CCCNC(=O)c1cc(CC)n(Cc2cccc(OC(F)(F)F)c2)n1 [Compound 27] | 0 | 10 | 5 | 5 |  |  |  |  |  |  |  |  |  |  |  |  |  |  |
| CCc1cc(C(=O)NOC(C)C)nn1Cc1cccc(OC(F)(F)F)c1 [Compound 70] | 0 | 5 | 0 | 5 | 98 | 15 | 95 | 95 | 85 | 5 | 25 | 65 | 65 | 5 | 10 | 50 |  |  |
| CCONC(=O)c1cc(CC)n(Cc2cccc(OC(F)(F)F)c2)n1 [Compound 72] | 5 | 15 |  | 15 | 98 | 30 | 85 | 90 | 75 | 10 | 15 | 65 | 85 | 30 | 60 | 80 | 5 |  |
| Cc1cc(C(=O)NCC(F)(F)F)nn1Cc1ccnc(C(F)(F)F)c1 [Compound 74] | 0 | 0 |  | 0 | 95 | 85 | 95 | 95 | 100 | 15 | 50 | 85 | 95 | 0 | 40 | 85 | 0 |  |
| CCc1cc(-c2ccc(C(F)(F)F)cc2)nn1Cc1ccnc(C(F)(F)F)c1 [Compound 110] |  |  |  |  |  |  |  |  |  |  |  |  |  |  |  |  |  | Plant response rating, Goosegrass (goosegrass; [6]): 35; Plant response rating, Goosegrass (goosegrass; [7]): 60; Plant response rating, Goosegrass (goosegrass; [8]): 95; Plant response rating, Goosegrass (goosegrass; [9]): 0; Plant response rating, Goosegrass (goosegrass; [10]): 15; Plant response rating, Italian Ryegrass (Italian ryegrass; [6]): 20; Plant response rating, Italian Ryegrass (Italian ryegrass; [7]): 20; Plant response rating, Italian Ryegrass (Italian ryegrass; [8]): 60; Plant response rating, Italian Ryegrass (Italian ryegrass; [9]): 0; Plant response rating, Italian Ryegrass (Italian ryegrass; [10]): 0; Plant response rating, Barnyardgrass (barnyardgrass; [6]): 0; Plant response rating, Barnyardgrass (barnyardgrass; [7]): 10; Plant response rating, Barnyardgrass (barnyardgrass; [8]): 35; Plant response rating, Barnyardgrass (barnyardgrass; [9]): 0; Plant response rating, Barnyardgrass (barnyardgrass; [10]): 0 |
